Data on nine compounds can be found in paper PMC10982093, “Identifying and characterising promising small molecule inhibitors of kinesin spindle protein using ligand-based virtual screening, molecular docking, molecular dynamics and MM‑GBSA calculations” (Journal of Computer-Aided Molecular Design, 2024).

By inhibition is commonly meant the relative decrease from the control value, in per cent. A higher inhibition goes with a strong effect. One may read the IC50 as the midpoint of a concentration-inhibition curve. By Ki is commonly meant a dissociation constant, usually derived from enzyme kinetics or from competition with a known ligand.

The target in experiment [1] is T1, Eg5 ATPase (Homo sapiens, UniProt P52732).
T1 construct: purchased Cytoskeleton, Inc BK060
T1 sequence (P52732 1-1056): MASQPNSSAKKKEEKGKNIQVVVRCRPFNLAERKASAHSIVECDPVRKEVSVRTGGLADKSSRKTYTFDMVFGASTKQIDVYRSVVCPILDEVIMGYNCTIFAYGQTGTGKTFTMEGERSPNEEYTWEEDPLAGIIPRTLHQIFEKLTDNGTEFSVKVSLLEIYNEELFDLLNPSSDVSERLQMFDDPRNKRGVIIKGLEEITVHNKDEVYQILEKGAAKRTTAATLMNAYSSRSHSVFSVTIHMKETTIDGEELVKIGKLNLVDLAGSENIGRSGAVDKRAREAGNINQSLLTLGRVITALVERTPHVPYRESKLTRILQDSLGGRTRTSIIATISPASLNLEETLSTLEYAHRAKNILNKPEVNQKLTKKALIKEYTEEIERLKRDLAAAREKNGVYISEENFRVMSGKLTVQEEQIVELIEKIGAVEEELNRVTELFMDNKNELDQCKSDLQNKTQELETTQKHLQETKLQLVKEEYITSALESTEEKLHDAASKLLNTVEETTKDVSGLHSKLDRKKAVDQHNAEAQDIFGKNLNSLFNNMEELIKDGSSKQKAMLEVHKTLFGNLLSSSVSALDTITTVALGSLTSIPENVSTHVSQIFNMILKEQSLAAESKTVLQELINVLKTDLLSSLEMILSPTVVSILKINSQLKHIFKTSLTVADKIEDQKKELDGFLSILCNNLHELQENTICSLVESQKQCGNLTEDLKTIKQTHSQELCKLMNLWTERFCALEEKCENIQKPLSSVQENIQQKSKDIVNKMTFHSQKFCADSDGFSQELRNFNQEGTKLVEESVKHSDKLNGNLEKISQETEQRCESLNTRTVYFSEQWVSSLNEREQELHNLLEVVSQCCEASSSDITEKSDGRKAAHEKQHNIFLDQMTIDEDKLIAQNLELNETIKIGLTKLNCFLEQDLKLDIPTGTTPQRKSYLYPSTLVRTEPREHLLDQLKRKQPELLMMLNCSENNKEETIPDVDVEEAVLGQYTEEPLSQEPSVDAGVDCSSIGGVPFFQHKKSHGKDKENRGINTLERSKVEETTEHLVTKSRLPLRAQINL
Kind of experiment: Microtubule-activated Eg5 ATPase inhibition assay (Kinesin ELISA kit BK060). The class given is biochemical. The conditions noted are these: for inhibition at 10 µM: mean of 3 replicates. The method, then: Microtubule (MT)-activated enzymatic Eg5-ATPase activity were measured in order to evaluate the inhibitory activity of the selected compounds at […]. The MT—ATPase activity was analysed using Kinesin ELISA kit (BK060) (Cytoskeleton, Inc) and Monastrol was used as a control. The procedures were applied according to the manufacturer’s instructions. The IC50 of compound 5 which were required for inhibiting 50% of Eg5 ATPase activity was measured using ELISA kit (BK060) (Cytoskeleton, Inc, Denver, CO) according to the manufacturer’s instructions.
The Eg5 ATPase activity of the six hits at 10 µM was investigated in comparison to Monastrol (10 µM), as it acted as a positive control compound. […] Similarly compounds 1, 3 and 4 caused 40, 35 and 30% inhibition activity respectively.
A general note: ELISA stands for enzyme-linked immunosorbent assay.

Experiment [2] has as its system Hela cells. Kind of experiment: Immunofluorescence assay, inhibition of mitotic spindle formation. In kind it is cell-based. The following applies: 10 µM, 24 h, tubulin immunofluorescence. On the procedure:
[…] Monastrol was used as a positive control, while 0.1% DMSO was used as a negative control. The cells were rinsed with PBS, fixed with 3.7% paraformaldehyde, and permeabilized with 0.1% Triton X-100. The cells were blocked with 1% BSA in PBS for 1 h prior to incubation with anti-β-tubulin mouse monoclonal antibody (#86,298, Cell Signaling, San Francisco, CA, USA) overnight at 4 °C. The cells were washed with PBS for 1 h in the dark, and then incubated with Alexa Fluor® 488 secondary antibodies (Abcam).
Further investigation of compound 5 was performed, which consisted of an immunofluorescence assay that was used to analyse the mechanism of compound 5 on the organisation of the microtubules into mitotic spindles during divisions of the cells.

Experiment [3] concerns the target Eg5 protein. Further details: method as in PMID 35251692. The following applies: read-out: Ki against Eg5 protein; cited from earlier work.

With `COc1ccc(CNc2nc3cc(C(=O)O)ccc3n2Cc2ccccc2C(F)(F)F)cc1` [Compound 1, 1-(2-(trifluoromethyl)benzyl)-2-(4-methoxybenzylamino)-1H-benzo[d]imidazole-5-carboxylic acid], at 10 µM the inhibition in experiment [1] was 40%.
The compound `COc1ccc(C(=O)N2c3ccc(OC(=O)c4ccco4)cc3C(C)=CC2(C)C)cc1` [Compound 2, 1-(4-methoxybenzoyl)-2,2,4-trimethyl-1,2-dihydroquinolin-6-yl furan-2-carboxylate] registered an inhibition at 10 µM in experiment [1] of approximately 25%.
In experiment [1], `COc1cc2nc(-c3cc(-c4ccccc4Cl)nc4ccccc34)[nH]c2cc1OC` [Compound 3, 2-(2-chlorophenyl)-4-(5,6-dimethoxy-1H-benzo[d]imidazol-2-yl)quinoline] returned an inhibition at 10 µM of 35%.
Still for that read-out and setting: to `Cc1ccc(O)c(C(=O)c2cnc3c(c2)c(-c2ccc(F)cc2)c(C#N)c(=O)n3C)c1` [Compound 4, 4-(4-fluorophenyl)-6-(2-hydroxy-5-methylbenzoyl)-1-methyl-2-oxo-1,8-naphthyridine-3-carbonitrile] belongs 30%.
In the case of `Cn1c(=O)[nH]c(=O)c2c1nc(NCCCn1ccnc1)n2Cc1ccc2ccccc2c1` [Compound 5, 8-(3-(1H-imidazol-1-yl)propylamino)-3-methyl-7-((naphthalen-3-yl)methyl)-1H-purine-2,6(3H,7H)-dione], the inhibition at 10 µM in experiment [1] is 50%. The IC50 in experiment [1] (read-out: IC50 against Eg5 ATPase) was 2370 ± 150 nM. In addition, the Mitotic spindle morphology result in experiment [2] is recorded as “monopolar spindle profiles”.
`CS(=O)(=O)c1ccc(CNc2nc3cc(C(=O)O)ccc3n2Cc2ccccc2C(F)(F)F)cc1` [Compound 6, 1-(2-(trifluoromethyl)benzyl)-2-(4-(methylsulfonyl)benzylamino)-1H-benzo[d]imidazole-5-carboxylic acid]: in experiment [1], the inhibition at 10 µM was approximately 25%.
`O=C1CCc2cc(-c3ccc(C(F)(F)F)cc3)ccc2N1` [GSK-1]: the inhibitory constant (Ki) in experiment [3] was 1.8 nM.
For the compound `NC(=O)Nc1ccc(-c2ccc(C(F)(F)F)cc2)cc1F` [GSK-2], the Ki in experiment [3] is 8.8 nM.
Regarding `CCOC(=O)C1=C(C)NC(=S)NC1c1cccc(O)c1` (stereo not drawn) [Monastrol, reference compound], the inhibition at 10 µM in experiment [1] is 60%. In experiment [2], the Mitotic spindle morphology entry is on record as “monopolar spindle profiles”.
